Experimental data taken from US20210032257A1, “(E)-1-(4-(DIMETHYLAMINO)BUT-2-ENOYL)PYRROLIDIN-3-YL 4-((3-ISOPROPYL-5-METHYLPYRAZOLO[1,5-A]PYRIMIDIN-7-YL)AMINO)PIPERIDINE-1-CARBOXYLATE FOR INHIBITING CDK7” (Eli Lilly and Company, priority 2017, published 2021).

Experiments:
[1] = tested on: phospho-carboxyl terminal domain (Ser5) in HCT116 cells; test: p-CTD (S5) cell based Acumen assay; settings: Homo sapiens, HCT-116, 4 hours, read-out: Relative IC50 for pCTD Ser5
Procedure: HCT116 cells (ATCC CCL-247) are cultured in McCoy's 5A Medium Modified media supplemented with 10% FBS, 1% NaPyr and 1% Pen/Strep and plated (prior to becoming 70% confluent) in 96-well flat-bottom plates at a density of 5,000 cells per well in 100 μL volume. The cells are incubated overnight in a cell culture incubator (5% CO2, 95% Relative Humidity (RH) and 37° C.) and allowed to attach to the plate. The following morning, the cells are dosed with compounds. Compound inhibitors are solubilized at 60 μM in culture medium containing 0.6% DMSO. Subsequently compound serial dilutions (1:3) are prepared over a 60 μM to 0.003 μM range. […]
The following day cells are washed three times with PBS (100 μL/well) and incubated with 50 μL/well of secondary antibody (1:2000 dilution, Goat anti-rabbit IgM ALEXA FLUOR™ 488) in PBS for 1 hour at room temperature. […] Plates are analyzed on Acumen on FL2 (mean intensity), and FL3 (total intensity). Fluorescence plates are scanned with ACUMEN EXPLORER™ [Laser-scanning fluorescence microplate cytometer manufactured by TTP LABTECH LTD] to measure anti-phospho-carboxyl terminal domain at Serine 5 (pCTD). […] The IC50 is determined by curve fitting to a four parameter logistic for each output using GENE DATA™.

CDK12/CycK = molecular target: T1, CDK12/CycK (Homo sapiens, UniProt Q9NYV4); test: ProQinase radiometric protein kinase assay, 10 concentrations; assay type: biochemical; settings: kinase 14.7 nM, ATP 0.3 μM
T1 construct: purchased ProQinase
T1 sequence (Q9NYV4 whole entry): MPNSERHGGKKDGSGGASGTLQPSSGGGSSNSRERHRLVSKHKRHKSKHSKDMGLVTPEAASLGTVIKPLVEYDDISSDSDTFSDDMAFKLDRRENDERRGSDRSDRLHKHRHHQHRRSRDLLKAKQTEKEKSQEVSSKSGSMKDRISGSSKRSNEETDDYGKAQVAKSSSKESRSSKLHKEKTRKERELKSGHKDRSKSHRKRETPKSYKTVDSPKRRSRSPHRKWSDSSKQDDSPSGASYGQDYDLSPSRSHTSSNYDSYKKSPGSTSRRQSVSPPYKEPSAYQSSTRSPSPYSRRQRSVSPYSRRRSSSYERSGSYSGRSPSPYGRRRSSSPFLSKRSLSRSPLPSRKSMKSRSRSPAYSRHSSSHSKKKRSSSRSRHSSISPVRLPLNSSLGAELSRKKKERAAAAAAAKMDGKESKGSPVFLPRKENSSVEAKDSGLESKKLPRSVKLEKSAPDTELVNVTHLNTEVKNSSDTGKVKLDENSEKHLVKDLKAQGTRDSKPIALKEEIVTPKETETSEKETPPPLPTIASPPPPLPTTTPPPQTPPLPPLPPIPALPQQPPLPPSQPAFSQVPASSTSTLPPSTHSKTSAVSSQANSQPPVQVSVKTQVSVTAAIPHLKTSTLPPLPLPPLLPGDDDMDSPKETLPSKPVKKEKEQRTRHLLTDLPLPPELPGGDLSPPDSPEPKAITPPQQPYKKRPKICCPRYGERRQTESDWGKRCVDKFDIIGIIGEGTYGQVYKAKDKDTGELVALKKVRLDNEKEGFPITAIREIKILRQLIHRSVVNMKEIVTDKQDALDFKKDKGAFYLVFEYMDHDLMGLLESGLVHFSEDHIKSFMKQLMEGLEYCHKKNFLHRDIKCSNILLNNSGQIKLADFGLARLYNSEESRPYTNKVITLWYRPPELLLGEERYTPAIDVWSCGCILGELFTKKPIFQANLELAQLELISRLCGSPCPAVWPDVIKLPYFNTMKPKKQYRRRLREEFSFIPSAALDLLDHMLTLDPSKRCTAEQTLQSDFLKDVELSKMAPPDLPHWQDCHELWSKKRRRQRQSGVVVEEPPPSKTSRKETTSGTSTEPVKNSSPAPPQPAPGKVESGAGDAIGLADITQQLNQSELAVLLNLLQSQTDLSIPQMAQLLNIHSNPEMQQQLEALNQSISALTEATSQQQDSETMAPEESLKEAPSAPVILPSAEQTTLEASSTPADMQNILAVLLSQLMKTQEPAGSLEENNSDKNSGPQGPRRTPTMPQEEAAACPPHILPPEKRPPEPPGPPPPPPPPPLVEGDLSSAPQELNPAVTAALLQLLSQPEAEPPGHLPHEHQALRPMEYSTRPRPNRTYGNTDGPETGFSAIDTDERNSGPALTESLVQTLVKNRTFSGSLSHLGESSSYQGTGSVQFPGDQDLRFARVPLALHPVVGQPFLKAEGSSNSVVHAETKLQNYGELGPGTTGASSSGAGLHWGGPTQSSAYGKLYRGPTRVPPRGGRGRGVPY
T1 sequence (O75909 whole entry partner): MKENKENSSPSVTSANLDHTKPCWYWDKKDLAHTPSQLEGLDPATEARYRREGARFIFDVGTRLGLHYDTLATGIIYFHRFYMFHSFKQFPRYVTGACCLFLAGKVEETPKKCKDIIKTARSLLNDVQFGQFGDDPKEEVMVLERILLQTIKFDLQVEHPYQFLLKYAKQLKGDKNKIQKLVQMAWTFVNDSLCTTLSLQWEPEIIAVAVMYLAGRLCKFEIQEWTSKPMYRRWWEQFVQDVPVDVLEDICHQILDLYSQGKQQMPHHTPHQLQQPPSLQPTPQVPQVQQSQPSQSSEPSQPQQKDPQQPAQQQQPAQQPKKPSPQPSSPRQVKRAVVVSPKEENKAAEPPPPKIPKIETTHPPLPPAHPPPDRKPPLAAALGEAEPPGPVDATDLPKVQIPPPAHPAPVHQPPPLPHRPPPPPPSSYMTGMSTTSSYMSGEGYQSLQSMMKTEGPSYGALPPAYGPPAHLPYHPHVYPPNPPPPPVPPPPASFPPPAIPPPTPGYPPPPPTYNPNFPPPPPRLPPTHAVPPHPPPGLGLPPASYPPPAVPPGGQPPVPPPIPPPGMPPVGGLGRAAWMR
Procedure: (§1) A radiometric protein kinase assay (33PANQINASE® Activity Assay, ProQinase) is used for measuring the kinase activity of the 320 protein kinases. All kinase assays are performed in 96-well FLASHPLATES™ in a 50 μL reaction volume. The reaction cocktail is pipetted in 4 steps in the following order:
(§2) All PKC assays (except the PKC-mu and the PKC-nu assay) additionally contain 1 mM CaCl2). 4 mM EDTA, 5 μg/mL Phosphatidylserine and 1 μg/mL 1,2-Dioleyl-glycerol. The CAMK1D, CAMK2A, CAMK2B, CAMK2D, CAMK2G, CAMK4, CAMKK1, CAMKK2, DAPK2, EEF2K, MYLK, MYLK2 and MYLK3 assays additionally contain 1 μg/mL Calmodulin and 0.5 mM CaCl2). The PRKG1 and PRKG2 assays additionally contain 1 μM cGMP. The DNA-PK assay additionally contained 2.5 μg/mL DNA.
(§3) The protein kinase reaction cocktails are incubated at 30° C. for 60 minutes. […] Kinases from external vendors (CAR=Carna Biosciences Inc.; INV=Life Technologies (Invitrogen Corporation™); MIL=Merck-Millipore (Millipore Corporation™), see Table 1) are expressed, purified and quality-controlled by virtue of the vendors readings.
(§4) CDK12 and CDK13 (ProQinase) are tested essentially as above but separately at 10 concentrations ([…] to […]) using semi-logarithmic dilutions. For the 10 points, the analysis the residual activities for each concentration and the compound IC50 values are calculated using QUATTRO® WORKFLOW™ V3.1.1. […]

CDK13/CycK = molecular target: T2, CDK13/CycK (Homo sapiens, UniProt Q14004); test: as above; assay type: biochemical; settings: kinase 29.2 nM, ATP 0.3 μM
T2 construct: purchased ProQinase
T2 sequence (Q14004 whole entry): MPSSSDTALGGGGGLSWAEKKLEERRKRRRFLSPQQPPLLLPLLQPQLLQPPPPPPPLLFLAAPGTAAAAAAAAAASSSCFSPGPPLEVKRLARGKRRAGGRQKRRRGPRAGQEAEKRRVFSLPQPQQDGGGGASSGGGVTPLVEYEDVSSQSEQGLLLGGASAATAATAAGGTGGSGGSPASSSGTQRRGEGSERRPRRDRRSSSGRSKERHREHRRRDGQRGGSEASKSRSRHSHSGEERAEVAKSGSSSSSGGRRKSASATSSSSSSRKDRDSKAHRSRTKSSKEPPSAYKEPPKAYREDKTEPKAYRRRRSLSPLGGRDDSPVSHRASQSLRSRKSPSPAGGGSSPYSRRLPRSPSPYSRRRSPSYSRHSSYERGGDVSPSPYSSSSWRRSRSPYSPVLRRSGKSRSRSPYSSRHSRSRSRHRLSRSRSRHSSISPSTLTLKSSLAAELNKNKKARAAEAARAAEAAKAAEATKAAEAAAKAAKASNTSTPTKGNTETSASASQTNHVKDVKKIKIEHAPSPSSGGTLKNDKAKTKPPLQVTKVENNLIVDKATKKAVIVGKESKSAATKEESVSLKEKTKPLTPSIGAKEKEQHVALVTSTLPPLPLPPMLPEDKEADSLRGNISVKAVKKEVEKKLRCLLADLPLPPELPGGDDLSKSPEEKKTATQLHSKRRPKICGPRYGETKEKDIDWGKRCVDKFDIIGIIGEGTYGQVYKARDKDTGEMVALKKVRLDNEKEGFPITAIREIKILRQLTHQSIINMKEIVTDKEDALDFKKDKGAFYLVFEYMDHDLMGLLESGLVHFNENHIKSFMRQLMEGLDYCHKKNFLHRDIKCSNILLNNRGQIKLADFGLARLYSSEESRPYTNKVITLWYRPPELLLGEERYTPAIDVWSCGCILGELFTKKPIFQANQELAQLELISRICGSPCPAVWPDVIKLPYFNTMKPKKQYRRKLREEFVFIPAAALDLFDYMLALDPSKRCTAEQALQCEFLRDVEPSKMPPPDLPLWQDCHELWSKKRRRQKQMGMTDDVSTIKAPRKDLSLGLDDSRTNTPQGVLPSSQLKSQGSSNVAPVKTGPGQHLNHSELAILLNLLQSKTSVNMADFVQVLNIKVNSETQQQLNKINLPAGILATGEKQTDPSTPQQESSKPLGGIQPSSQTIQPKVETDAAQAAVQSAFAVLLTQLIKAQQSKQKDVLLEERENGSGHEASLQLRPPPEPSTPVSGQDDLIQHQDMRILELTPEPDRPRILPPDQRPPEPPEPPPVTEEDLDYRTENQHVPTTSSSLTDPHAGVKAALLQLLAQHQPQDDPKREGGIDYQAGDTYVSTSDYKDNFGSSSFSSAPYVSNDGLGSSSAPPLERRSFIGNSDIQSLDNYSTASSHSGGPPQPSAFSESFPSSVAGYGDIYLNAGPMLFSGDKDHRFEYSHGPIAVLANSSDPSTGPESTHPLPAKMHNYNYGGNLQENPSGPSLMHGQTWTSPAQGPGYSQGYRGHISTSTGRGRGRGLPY
T2 sequence (O75909 whole entry partner): as the sequence (O75909 whole entry partner) above
Procedure: as §1, §2, §3, §4

Compound `Cc1cc(NC2CCN(C(=O)O[C@H]3CCN(C(=O)/C=C/CN(C)C)C3)CC2)n2ncc(C(C)C)c2n1` [Example 1, [(3S)-1-[(E)-4-(dimethylamino)but-2-enoyl]pyrrolidin-3-yl] 4-[(3-isopropyl-5-methyl-pyrazolo[1,5-a]pyrimidin-7-yl)amino]piperidine-1-carboxylate] has an IC50 [1] of 0.14 µM, an IC50 (CDK12/CycK) of 14.8 µM and an IC50 (CDK13/CycK) of at least 20 µM.
